Measured values from patent US7807439B2, “Staphylococcus aureus-specific detection media and identifying and/or counting method using same” (Biomerieux S.A., priority 2001, dated 2010).

How the values were obtained:
Test in all cases: Experiment 7: effect of maltose on α-glucosidase activity, weak inocula
Assay type in all cases: cell-based, Staphylococcus aureus
Design in all cases: key: 0 corresponds to a lack of activity; 0.1 corresponds to the presence of a trace of coloration; 0.5 corresponds to the presence of a very pale coloration; 1 corresponds to the presence of a clear coloration of weak intensity; 1.5 corresponds to the presence of a coloration which is intermediate between colorations 1 and 2; 2 corresponds to the presence of a true coloration of medium intensity; 2.5 corresponds to the presence of a coloration which is intermediate between colorations 2 and 3; 3 corresponds to the presence of an intense coloration; 3.5 corresponds to the presence of a coloration which is intermediate between colorations 3 and 4; 4 corresponds to the presence of a very intense coloration
S. aureus 0201035 = settings: strain 5
Method: (§1) The maltose is solubilized in water at a concentration of, for example, 100 g/l, and then a sufficient volume to obtain the final concentrations above is added to the three molten media. The Staphylococcal strains derived from the bioMérieux internal collection were seeded onto each one of the chromogenic media on their own (closely spaced perpendicular streaks over the entire surface of the dish) using a suspension at 0.5 MacFarland diluted to 1/30000. The dishes were incubated at 37° C. for 48 hours. The colonies formed were examined visually after 18, 24 and 48 hours of incubation and the intensity of coloration of the colonies was marked. The coloration was noted and the intensity of these colorations was marked. The reading scale is the same as that used above for tables 2 and 4.

S. aureus 7509008 = settings: strain 1
Method: as §1

S. aureus 8311065 = settings: strain 3
Method: as §1

S. aureus 8507276 = settings: strain 2
Method: as §1

S. aureus 8507285 = settings: strain 4
Method: as §1

Measured: Intensity of coloration of the colonies

OC[C@H]1O[C@H](O[C@H]2[C@H](O)[C@@H](O)C(O)O[C@@H]2CO)[C@H](O)[C@@H](O)[C@@H]1O (mixture of isomers) [Maltose, maltose]
0.3: S. aureus 0201035; 18 h, Maltose 100 mg/l | S. aureus 8507285; 24 h, Maltose 100 mg/l | S. aureus 8507285; 24 h, Maltose 300 mg/l | S. aureus 8507285; 24 h, Maltose 400 mg/l
0.8: S. aureus 0201035; >40 h, Maltose 100 mg/l | S. aureus 8507285; >40 h, Maltose 100 mg/l
1.7: S. aureus 7509008; 18 h, Maltose 400 mg/l | S. aureus 7509008; 24 h, Maltose 100 mg/l | S. aureus 7509008; 24 h, Maltose 300 mg/l | S. aureus 8311065; 24 h, Maltose 100 mg/l | S. aureus 8311065; 24 h, Maltose 300 mg/l
2: S. aureus 7509008; >40 h, Maltose 100 mg/l | S. aureus 7509008; >40 h, Maltose 300 mg/l | S. aureus 8311065; 24 h, Maltose 400 mg/l | S. aureus 8507276; 18 h, Maltose 100 mg/l | S. aureus 8507276; 18 h, Maltose 300 mg/l | S. aureus 8507276; 18 h, Maltose 400 mg/l
1: S. aureus 0201035; 24 h, Maltose 300 mg/l | S. aureus 0201035; 24 h, Maltose 400 mg/l | S. aureus 0201035; >40 h, Maltose 300 mg/l | S. aureus 8507285; >40 h, Maltose 300 mg/l
1.3: S. aureus 0201035; >40 h, Maltose 400 mg/l | S. aureus 7509008; 18 h, Maltose 100 mg/l | S. aureus 7509008; 18 h, Maltose 300 mg/l | S. aureus 8311065; 18 h, Maltose 100 mg/l | S. aureus 8311065; 18 h, Maltose 300 mg/l | S. aureus 8311065; 18 h, Maltose 400 mg/l | S. aureus 8507285; >40 h, Maltose 400 mg/l
3: S. aureus 7509008; 24 h, Maltose 400 mg/l | S. aureus 8507276; >40 h, Maltose 100 mg/l | S. aureus 8507276; >40 h, Maltose 300 mg/l | S. aureus 8507276; >40 h, Maltose 400 mg/l
0.5: S. aureus 0201035; 18 h, Maltose 300 mg/l | S. aureus 0201035; 18 h, Maltose 400 mg/l | S. aureus 0201035; 24 h, Maltose 100 mg/l
2.7: S. aureus 7509008; >40 h, Maltose 400 mg/l | S. aureus 8311065; >40 h, Maltose 100 mg/l | S. aureus 8311065; >40 h, Maltose 300 mg/l | S. aureus 8311065; >40 h, Maltose 400 mg/l | S. aureus 8507276; 24 h, Maltose 100 mg/l | S. aureus 8507276; 24 h, Maltose 300 mg/l | S. aureus 8507276; 24 h, Maltose 400 mg/l
0: S. aureus 8507285; 18 h, Maltose 100 mg/l | S. aureus 8507285; 18 h, Maltose 300 mg/l | S. aureus 8507285; 18 h, Maltose 400 mg/l
